Test results from patent US10131652B2, “Pyrimidinyloxy benzene derivatives as herbicides” (E. I. DU PONT DE NEMOURS AND COMPANY, priority 2014, dated 2018).

Columns and labels:
Test in all cases: Test D pre-/postemergence plant response
Assay type in all cases: in vivo
[1] = system: morningglory (Ipomoea coccinea); details: Postemergence; for Morningglory plant response rating: scale 0 to 100 (0 no effect, 100 complete control); for Plant response rating, Morningglory: scale 0 to 100, 0 no effect, 100 complete control
Description: (§1) Seeds of plant species selected from blackgrass (Alopecurus myosuroides), Italian ryegrass (Lolium multiflorum), winter wheat (Triticum aestivum), galium (catchweed bedstraw, Galium aparine), corn (Zea mays), large (Lg) crabgrass (Digitaria sanguinalis), giant foxtail (Setaria faberii), johnsongrass (Sorghum halepense), lambsquarters (Chenopodium album), morningglory (Ipomoea coccinea), yellow nutsedge (Cyperus esculentus), pigweed (Amaranthus retroflexus), ragweed (common ragweed, Ambrosia elatior), soybean (Glycine max), bamyardgrass (Echinochloa crus-galli), oilseed rape (Brassica napus), waterhemp (common waterhemp, Amaranthus rudis), and velvetleaf (Abutilon theophrasti) were planted into a blend of loam soil and sand and treated preemergence with test chemicals formulated in a non-phytotoxic solvent mixture which included a surfactant. At the same time, plants selected from these crop and weed species and also kochia (Kochia scoparia), wild oat (Avena fatua), and chickweed (common chickweed, Stellaria media) were planted in pots containing Redi-Earth® planting medium (Scotts Company, 14111 Scottslawn Road, Marysville, Ohio 43041) comprising spaghnum peat moss, vermiculite, wetting agent and starter nutrients and treated with postemergence applications of test chemicals formulated in the same manner. Plants ranged in height from 2 to 18 cm (1- to 4-leaf stage) for postemergence treatments. Treated plants and controls were maintained in a greenhouse for 13 to 15 days, after which time all species were compared to controls and visually evaluated. Plant response ratings, summarized in Table D, are based on a scale of 0 to 100 where 0 is no effect and 100 is complete control. A dash (-) response means no test result.

[2] = system: ragweed (common ragweed, Ambrosia elatior); details: Postemergence; for Ragweed plant response rating: scale 0 to 100 (0 no effect, 100 complete control); for Plant response rating, Ragweed: scale 0 to 100, 0 no effect, 100 complete control
Description: as §1

corn (Zea mays) = details: Postemergence; for Corn plant response rating: scale 0 to 100 (0 no effect, 100 complete control); for Plant response rating, Corn: scale 0 to 100, 0 no effect, 100 complete control
Description: as §1

[3] = system: Italian ryegrass (Lolium multiflorum); details: Postemergence; for Ryegrass, Italian plant response rating: scale 0 to 100 (0 no effect, 100 complete control); for Plant response rating, Ryegrass, Italian: scale 0 to 100, 0 no effect, 100 complete control
Description: as §1

soybean (Glycine max) = details: Postemergence; for Soybean plant response rating: scale 0 to 100 (0 no effect, 100 complete control); for Plant response rating, Soybean: scale 0 to 100, 0 no effect, 100 complete control
Description: as §1

[4] = system: waterhemp (common waterhemp, Amaranthus rudis); details: Postemergence; for Waterhemp plant response rating: scale 0 to 100 (0 no effect, 100 complete control); for Plant response rating, Waterhemp: scale 0 to 100, 0 no effect, 100 complete control
Description: as §1

[5] = system: giant foxtail (Setaria faberii); details: Postemergence; for Foxtail, Giant plant response rating: scale 0 to 100 (0 no effect, 100 complete control); for Plant response rating, Foxtail, Giant: scale 0 to 100, 0 no effect, 100 complete control
Description: as §1

[6] = system: blackgrass (Alopecurus myosuroides); details: Postemergence; for Blackgrass plant response rating: scale 0 to 100 (0 no effect, 100 complete control); for Plant response rating, Blackgrass: scale 0 to 100, 0 no effect, 100 complete control
Description: as §1

[7] = system: large (Lg) crabgrass (Digitaria sanguinalis); details: Postemergence; for Crabgrass, Large plant response rating: scale 0 to 100 (0 no effect, 100 complete control); for Plant response rating, Crabgrass, Large: scale 0 to 100, 0 no effect, 100 complete control
Description: as §1

[8] = system: oilseed rape (Brassica napus); details: Postemergence; for Oilseed Rape plant response rating: scale 0 to 100 (0 no effect, 100 complete control); for Plant response rating, Oilseed Rape: scale 0 to 100, 0 no effect, 100 complete control
Description: as §1

[9] = system: winter wheat (Triticum aestivum); details: Postemergence; for Wheat plant response rating: scale 0 to 100 (0 no effect, 100 complete control); for Plant response rating, Wheat: scale 0 to 100, 0 no effect, 100 complete control
Description: as §1

[10] = system: galium (catchweed bedstraw, Galium aparine); details: Postemergence; for Galium plant response rating: scale 0 to 100 (0 no effect, 100 complete control); for Plant response rating, Galium: scale 0 to 100, 0 no effect, 100 complete control
Description: as §1

[11] = system: barnyardgrass (Echinochloa crus-galli); details: Postemergence; for Barnyardgrass plant response rating: scale 0 to 100 (0 no effect, 100 complete control); for Plant response rating, Barnyardgrass: scale 0 to 100, 0 no effect, 100 complete control
Description: as §1

[12] = system: lambsquarters (Chenopodium album); details: Postemergence; for Lambsquarters plant response rating: scale 0 to 100 (0 no effect, 100 complete control); for Plant response rating, Lambsquarters: scale 0 to 100, 0 no effect, 100 complete control
Description: as §1

[13] = system: pigweed (Amaranthus retroflexus); details: Postemergence; for Pigweed plant response rating: scale 0 to 100 (0 no effect, 100 complete control); for Plant response rating, Pigweed: scale 0 to 100, 0 no effect, 100 complete control
Description: as §1

[14] = system: johnsongrass (Sorghum halepense); details: Postemergence; for Johnsongrass plant response rating: scale 0 to 100 (0 no effect, 100 complete control); for Plant response rating, Johnsongrass: scale 0 to 100, 0 no effect, 100 complete control
Description: as §1

[15] = system: velvetleaf (Abutilon theophrasti); details: Postemergence; for Velvetleaf plant response rating: scale 0 to 100 (0 no effect, 100 complete control); for Plant response rating, Velvetleaf: scale 0 to 100, 0 no effect, 100 complete control
Description: as §1

Cn1nnc(-c2ccccc2Oc2ncc(Br)cn2)n1 [Compound 50]
50: Plant response rating, Lambsquarters ([12]; 62 g ai/ha)
15: Plant response rating, Ragweed ([2]; 125 g ai/ha) | Galium plant response rating ([10]; 31 g ai/ha)
10: Plant response rating, Morningglory ([1]; 62 g ai/ha) | Plant response rating, Oilseed Rape ([8]; 62 g ai/ha)
5: Ragweed plant response rating ([2]; 16 g ai/ha) | Ragweed plant response rating ([2]; 31 g ai/ha) | Plant response rating, Ragweed ([2]; 62 g ai/ha) | Plant response rating, Corn (corn (Zea mays); 125 g ai/ha) | Soybean plant response rating (soybean (Glycine max); 16 g ai/ha) | Soybean plant response rating (soybean (Glycine max); 31 g ai/ha) | Plant response rating, Foxtail, Giant ([5]; 62 g ai/ha) | Plant response rating, Crabgrass, Large ([7]; 125 g ai/ha) | Oilseed Rape plant response rating ([8]; 16 g ai/ha) | Oilseed Rape plant response rating ([8]; 31 g ai/ha) | Plant response rating, Wheat ([9]; 62 g ai/ha) | Plant response rating, Wheat ([9]; 125 g ai/ha) | Plant response rating, Galium ([10]; 62 g ai/ha) | Lambsquarters plant response rating ([12]; 31 g ai/ha) | Plant response rating, Lambsquarters ([12]; 125 g ai/ha) | Pigweed plant response rating ([13]; 31 g ai/ha) | Plant response rating, Pigweed ([13]; 62 g ai/ha)
40: Plant response rating, Soybean (soybean (Glycine max); 125 g ai/ha) | Plant response rating, Waterhemp ([4]; 125 g ai/ha) | Plant response rating, Velvetleaf ([15]; 125 g ai/ha)
0: Morningglory plant response rating ([1]; 16 g ai/ha) | Morningglory plant response rating ([1]; 31 g ai/ha) | Corn plant response rating (corn (Zea mays); 16 g ai/ha) | Corn plant response rating (corn (Zea mays); 31 g ai/ha) | Plant response rating, Corn (corn (Zea mays); 62 g ai/ha) | Ryegrass, Italian plant response rating ([3]; 16 g ai/ha) | Ryegrass, Italian plant response rating ([3]; 31 g ai/ha) | Plant response rating, Ryegrass, Italian ([3]; 62 g ai/ha) | Plant response rating, Ryegrass, Italian ([3]; 125 g ai/ha) | Waterhemp plant response rating ([4]; 16 g ai/ha) | Waterhemp plant response rating ([4]; 31 g ai/ha) | Plant response rating, Waterhemp ([4]; 62 g ai/ha) | Foxtail, Giant plant response rating ([5]; 16 g ai/ha) | Foxtail, Giant plant response rating ([5]; 31 g ai/ha) | Blackgrass plant response rating ([6]; 16 g ai/ha) | Blackgrass plant response rating ([6]; 31 g ai/ha) | Plant response rating, Blackgrass ([6]; 62 g ai/ha) | Plant response rating, Blackgrass ([6]; 125 g ai/ha) | Crabgrass, Large plant response rating ([7]; 16 g ai/ha) | Crabgrass, Large plant response rating ([7]; 31 g ai/ha) | Plant response rating, Crabgrass, Large ([7]; 62 g ai/ha) | Wheat plant response rating ([9]; 16 g ai/ha) | Wheat plant response rating ([9]; 31 g ai/ha) | Barnyardgrass plant response rating ([11]; 16 g ai/ha) | Barnyardgrass plant response rating ([11]; 31 g ai/ha) | Plant response rating, Barnyardgrass ([11]; 62 g ai/ha) | Plant response rating, Barnyardgrass ([11]; 125 g ai/ha) | Lambsquarters plant response rating ([12]; 16 g ai/ha) | Pigweed plant response rating ([13]; 16 g ai/ha) | Johnsongrass plant response rating ([14]; 16 g ai/ha) | Johnsongrass plant response rating ([14]; 31 g ai/ha) | Plant response rating, Johnsongrass ([14]; 62 g ai/ha) | Plant response rating, Johnsongrass ([14]; 125 g ai/ha) | Velvetleaf plant response rating ([15]; 16 g ai/ha) | Velvetleaf plant response rating ([15]; 31 g ai/ha) | Plant response rating, Velvetleaf ([15]; 62 g ai/ha)
35: Plant response rating, Foxtail, Giant ([5]; 125 g ai/ha)
60: Plant response rating, Galium ([10]; 125 g ai/ha)
30: Plant response rating, Oilseed Rape ([8]; 125 g ai/ha) | Galium plant response rating ([10]; 16 g ai/ha) | Plant response rating, Pigweed ([13]; 125 g ai/ha)
20: Plant response rating, Morningglory ([1]; 125 g ai/ha) | Plant response rating, Soybean (soybean (Glycine max); 62 g ai/ha)
